pIC50: −log10 of the molar value. Where “and” joins values, the source holds several entries; their conditions need not be identical. Equal entries are not always repeated. Where two headings read alike, the source gives them in different places.
Assays:
Test in all cases: SelectScreen kinase assay
[1] = target: ACVR1 (ALK2) (Homo sapiens, UniProt Q04771)
Procedure: (§1) Selectivity profiling assays were performed by the Invitrogen SelectScreen™ Services. […] The concentration of ATP was selected to be equal to the KM, unless indicated otherwise.

[2] = target: ADCK3 (Homo sapiens, UniProt Q8NI60)
Procedure: as §1

[3] = target: BRAF (Homo sapiens, UniProt P15056)
Procedure: as §1

[4] = system: BRAF; conditions: IC50 on that kinase divided by IC50 on FES^S700C
Procedure: as §1

[5] = target: CAMK2A (CaMKII alpha) (Homo sapiens, UniProt Q9UQM7)
Procedure: as §1

[6] = target: CDK11/cyclin C (Homo sapiens, UniProt Q9BWU1); conditions: for Inhibition at 1 µM (%): CDK11/cyclin C, LanthaScreen Binding
Procedure: as §1

[7] = target: CDK2/cyclin A1 (Homo sapiens, UniProt P24941)
Procedure: as §1

[8] = target: CDK5 (Inactive) (Homo sapiens, UniProt Q00535)
Procedure: as §1

[9] = target: CHEK2 (CHK2) (Homo sapiens, UniProt O96017)
Procedure: as §1

[10] = target: DDR1 (Homo sapiens, UniProt Q08345)
Procedure: as §1

[11] = target: DMPK (Homo sapiens, UniProt Q09013)
Procedure: as §1

[12] = target: T1, EEF2K (Homo sapiens, UniProt O00418)
T1 sequence (O00418 1-725): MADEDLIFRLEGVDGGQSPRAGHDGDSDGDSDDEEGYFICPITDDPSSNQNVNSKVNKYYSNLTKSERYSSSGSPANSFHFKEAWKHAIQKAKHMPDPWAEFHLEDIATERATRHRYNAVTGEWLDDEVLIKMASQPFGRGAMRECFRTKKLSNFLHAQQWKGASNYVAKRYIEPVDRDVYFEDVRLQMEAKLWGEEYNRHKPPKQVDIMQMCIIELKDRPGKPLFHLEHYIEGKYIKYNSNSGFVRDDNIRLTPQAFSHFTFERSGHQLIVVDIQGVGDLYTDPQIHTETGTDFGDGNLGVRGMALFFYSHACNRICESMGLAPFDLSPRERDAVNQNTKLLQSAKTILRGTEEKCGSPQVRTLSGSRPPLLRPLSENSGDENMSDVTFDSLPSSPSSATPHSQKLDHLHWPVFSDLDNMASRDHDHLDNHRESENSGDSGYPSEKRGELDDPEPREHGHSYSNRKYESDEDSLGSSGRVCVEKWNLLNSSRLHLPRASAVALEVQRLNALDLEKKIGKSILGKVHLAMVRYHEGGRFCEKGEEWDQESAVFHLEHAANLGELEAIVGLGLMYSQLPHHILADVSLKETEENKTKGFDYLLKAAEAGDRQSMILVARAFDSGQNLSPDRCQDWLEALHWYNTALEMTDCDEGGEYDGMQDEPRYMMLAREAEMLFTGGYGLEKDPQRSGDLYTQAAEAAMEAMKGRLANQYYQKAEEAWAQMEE
Procedure: as §1

[13] = target: FRAP1 (mTOR) (Homo sapiens, UniProt P42345)
Procedure: as §1

[14] = target: MKNK1 (MNK1) (Homo sapiens, UniProt Q9BUB5)
Procedure: as §1

[15] = target: NEK1 (Homo sapiens, UniProt Q96PY6)
Procedure: as §1

[16] = target: NIM1K (Homo sapiens, UniProt Q8IY84)
Procedure: as §1

[17] = target: PI4K2A (PI4K2 alpha) (Homo sapiens, UniProt Q9BTU6)
Procedure: as §1

[18] = target: PRKG2 (PKG2) (Homo sapiens, UniProt Q13237)
Procedure: as §1

[19] = target: SIK3 (Homo sapiens, UniProt Q9Y2K2)
Procedure: as §1

[20] = target: STK33 (Homo sapiens, UniProt Q9BYT3)
Procedure: as §1

[21] = target: TXK (Homo sapiens, UniProt P42681)
Procedure: as §1

[22] = 1 h, 1 μM WEL028, 1 h preincubation
[23] = 1 µM, LanthaScreen Binding, listed as WEL028, 1 µM

Chain of CDK5 (Inactive) (Q00535 whole entry): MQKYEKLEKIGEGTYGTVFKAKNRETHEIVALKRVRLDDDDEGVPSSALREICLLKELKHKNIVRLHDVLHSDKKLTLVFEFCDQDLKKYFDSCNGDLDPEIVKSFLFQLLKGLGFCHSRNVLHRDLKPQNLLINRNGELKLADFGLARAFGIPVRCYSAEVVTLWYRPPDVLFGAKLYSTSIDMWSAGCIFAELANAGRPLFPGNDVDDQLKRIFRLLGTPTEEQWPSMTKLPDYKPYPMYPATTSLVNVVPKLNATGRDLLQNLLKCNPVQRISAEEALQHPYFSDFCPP
Chain of STK33 (Q9BYT3 whole entry, species assumed): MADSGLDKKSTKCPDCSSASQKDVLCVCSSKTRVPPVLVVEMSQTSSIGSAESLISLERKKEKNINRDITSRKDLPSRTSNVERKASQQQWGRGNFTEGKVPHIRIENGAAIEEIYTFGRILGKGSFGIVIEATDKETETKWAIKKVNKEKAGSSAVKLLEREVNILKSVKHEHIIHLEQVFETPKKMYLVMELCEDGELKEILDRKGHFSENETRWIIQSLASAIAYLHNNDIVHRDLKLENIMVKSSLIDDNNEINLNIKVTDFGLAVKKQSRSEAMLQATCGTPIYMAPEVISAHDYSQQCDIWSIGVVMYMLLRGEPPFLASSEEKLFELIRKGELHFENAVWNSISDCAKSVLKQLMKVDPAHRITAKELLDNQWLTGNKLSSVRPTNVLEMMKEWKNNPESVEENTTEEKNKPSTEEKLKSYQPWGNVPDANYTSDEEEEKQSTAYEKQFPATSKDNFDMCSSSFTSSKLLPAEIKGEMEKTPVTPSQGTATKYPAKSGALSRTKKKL
Chain of CDK11/cyclin C (Q9BWU1 whole entry): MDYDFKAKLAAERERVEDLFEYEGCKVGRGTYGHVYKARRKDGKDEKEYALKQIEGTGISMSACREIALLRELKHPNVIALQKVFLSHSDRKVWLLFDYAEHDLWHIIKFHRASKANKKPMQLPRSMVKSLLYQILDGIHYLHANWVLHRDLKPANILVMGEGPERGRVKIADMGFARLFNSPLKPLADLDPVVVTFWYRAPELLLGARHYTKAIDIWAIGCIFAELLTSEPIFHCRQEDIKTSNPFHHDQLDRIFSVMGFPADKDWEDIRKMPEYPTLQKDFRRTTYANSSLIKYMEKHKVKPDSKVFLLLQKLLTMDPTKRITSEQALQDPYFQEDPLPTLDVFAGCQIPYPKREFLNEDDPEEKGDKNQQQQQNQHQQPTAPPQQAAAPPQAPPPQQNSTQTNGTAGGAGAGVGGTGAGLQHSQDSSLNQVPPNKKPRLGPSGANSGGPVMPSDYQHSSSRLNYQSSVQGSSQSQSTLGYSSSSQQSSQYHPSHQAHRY
Chain of CDK11/cyclin C (P24863 whole entry partner): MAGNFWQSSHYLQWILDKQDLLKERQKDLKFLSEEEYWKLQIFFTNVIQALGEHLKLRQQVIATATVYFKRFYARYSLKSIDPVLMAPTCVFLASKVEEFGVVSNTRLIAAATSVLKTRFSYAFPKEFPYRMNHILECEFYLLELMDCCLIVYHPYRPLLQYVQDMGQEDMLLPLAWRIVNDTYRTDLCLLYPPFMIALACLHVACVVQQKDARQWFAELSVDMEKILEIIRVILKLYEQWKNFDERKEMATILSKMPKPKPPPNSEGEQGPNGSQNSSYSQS
Chain of BRAF (Homo sapiens, UniProt P15056) (P15056 whole entry, species assumed): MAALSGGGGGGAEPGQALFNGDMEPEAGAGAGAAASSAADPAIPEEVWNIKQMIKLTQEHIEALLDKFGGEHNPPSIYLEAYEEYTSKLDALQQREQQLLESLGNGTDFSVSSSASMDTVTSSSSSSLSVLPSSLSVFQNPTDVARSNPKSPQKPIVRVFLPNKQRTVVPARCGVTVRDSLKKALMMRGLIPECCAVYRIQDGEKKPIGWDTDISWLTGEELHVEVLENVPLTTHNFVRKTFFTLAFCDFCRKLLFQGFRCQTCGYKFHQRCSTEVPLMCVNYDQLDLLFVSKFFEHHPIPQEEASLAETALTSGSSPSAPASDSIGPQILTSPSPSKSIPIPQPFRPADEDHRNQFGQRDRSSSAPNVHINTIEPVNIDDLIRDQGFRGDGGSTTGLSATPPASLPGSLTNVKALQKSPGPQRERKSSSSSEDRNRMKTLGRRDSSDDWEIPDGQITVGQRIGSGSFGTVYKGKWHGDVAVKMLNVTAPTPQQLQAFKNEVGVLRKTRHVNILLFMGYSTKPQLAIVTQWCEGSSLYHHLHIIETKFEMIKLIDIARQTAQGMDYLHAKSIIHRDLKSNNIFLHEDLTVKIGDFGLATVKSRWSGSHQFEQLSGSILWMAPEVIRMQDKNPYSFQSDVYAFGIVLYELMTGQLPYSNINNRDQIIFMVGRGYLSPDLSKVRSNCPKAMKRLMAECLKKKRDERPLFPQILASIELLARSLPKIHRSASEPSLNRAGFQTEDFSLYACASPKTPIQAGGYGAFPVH
Chain of SIK3 (Q9Y2K2 whole entry): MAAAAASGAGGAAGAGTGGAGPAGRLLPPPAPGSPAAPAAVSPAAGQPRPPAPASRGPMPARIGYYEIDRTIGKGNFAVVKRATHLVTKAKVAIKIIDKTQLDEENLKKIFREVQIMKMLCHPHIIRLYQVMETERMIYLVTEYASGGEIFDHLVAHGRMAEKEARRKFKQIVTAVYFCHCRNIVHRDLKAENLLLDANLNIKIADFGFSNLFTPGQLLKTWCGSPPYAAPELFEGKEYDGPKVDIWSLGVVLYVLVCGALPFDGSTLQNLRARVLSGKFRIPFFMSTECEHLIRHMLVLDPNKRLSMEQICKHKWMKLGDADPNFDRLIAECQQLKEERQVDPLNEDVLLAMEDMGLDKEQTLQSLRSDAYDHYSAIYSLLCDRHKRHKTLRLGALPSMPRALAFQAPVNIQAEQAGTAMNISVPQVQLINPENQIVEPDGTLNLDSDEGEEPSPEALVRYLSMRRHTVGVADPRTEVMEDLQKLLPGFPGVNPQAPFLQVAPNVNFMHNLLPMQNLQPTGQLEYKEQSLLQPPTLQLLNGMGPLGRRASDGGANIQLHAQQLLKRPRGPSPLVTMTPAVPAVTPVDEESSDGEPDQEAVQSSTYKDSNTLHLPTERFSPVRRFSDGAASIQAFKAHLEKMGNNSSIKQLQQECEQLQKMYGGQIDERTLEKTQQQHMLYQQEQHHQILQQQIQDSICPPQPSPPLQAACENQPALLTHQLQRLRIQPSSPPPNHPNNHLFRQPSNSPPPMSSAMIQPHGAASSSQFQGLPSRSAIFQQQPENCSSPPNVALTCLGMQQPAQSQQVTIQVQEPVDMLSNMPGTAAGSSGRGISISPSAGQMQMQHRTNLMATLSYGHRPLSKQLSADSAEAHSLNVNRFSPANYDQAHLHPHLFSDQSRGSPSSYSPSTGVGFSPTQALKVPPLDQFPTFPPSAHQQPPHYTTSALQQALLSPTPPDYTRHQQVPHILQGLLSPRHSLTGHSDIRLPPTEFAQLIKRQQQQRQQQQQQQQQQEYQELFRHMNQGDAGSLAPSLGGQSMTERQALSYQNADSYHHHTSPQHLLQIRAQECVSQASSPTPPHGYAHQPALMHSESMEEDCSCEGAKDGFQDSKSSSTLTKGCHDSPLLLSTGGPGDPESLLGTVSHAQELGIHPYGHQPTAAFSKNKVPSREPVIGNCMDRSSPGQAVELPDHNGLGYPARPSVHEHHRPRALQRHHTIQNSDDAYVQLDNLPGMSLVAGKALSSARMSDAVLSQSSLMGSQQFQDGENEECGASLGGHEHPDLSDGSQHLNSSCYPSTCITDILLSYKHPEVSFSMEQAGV
Chain of CAMK2A (CaMKII alpha) (Q9UQM7 whole entry): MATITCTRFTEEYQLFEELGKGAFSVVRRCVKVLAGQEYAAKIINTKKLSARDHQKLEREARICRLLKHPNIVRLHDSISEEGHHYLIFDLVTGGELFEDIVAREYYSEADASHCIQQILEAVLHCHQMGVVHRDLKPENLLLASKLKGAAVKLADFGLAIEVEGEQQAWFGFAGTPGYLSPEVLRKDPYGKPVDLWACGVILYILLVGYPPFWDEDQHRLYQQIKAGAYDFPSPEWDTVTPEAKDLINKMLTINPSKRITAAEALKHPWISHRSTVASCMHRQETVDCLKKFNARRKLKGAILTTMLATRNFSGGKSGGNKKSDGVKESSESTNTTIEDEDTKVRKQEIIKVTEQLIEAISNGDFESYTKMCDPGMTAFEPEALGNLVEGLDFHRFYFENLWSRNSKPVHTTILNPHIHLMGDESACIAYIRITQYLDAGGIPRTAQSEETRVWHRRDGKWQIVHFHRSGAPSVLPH
Chain of DMPK (Q09013 whole entry): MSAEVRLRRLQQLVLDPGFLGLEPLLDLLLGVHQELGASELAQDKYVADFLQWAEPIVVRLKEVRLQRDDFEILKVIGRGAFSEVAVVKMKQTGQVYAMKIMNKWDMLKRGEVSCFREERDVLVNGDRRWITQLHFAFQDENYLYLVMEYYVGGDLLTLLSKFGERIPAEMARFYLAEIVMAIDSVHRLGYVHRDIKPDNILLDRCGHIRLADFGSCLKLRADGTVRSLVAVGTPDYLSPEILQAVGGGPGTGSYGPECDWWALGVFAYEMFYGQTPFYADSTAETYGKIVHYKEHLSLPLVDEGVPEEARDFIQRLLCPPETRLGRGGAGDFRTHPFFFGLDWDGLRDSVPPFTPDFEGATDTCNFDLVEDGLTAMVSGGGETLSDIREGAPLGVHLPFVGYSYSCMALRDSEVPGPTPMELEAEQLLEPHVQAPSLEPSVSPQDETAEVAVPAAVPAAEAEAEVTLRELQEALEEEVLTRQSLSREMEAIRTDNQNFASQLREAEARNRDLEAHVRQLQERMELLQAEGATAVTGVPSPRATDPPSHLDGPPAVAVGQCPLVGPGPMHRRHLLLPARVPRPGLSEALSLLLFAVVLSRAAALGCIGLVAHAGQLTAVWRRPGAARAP

## C#CCOc1ccc(Nc2ncc(Cl)c(Nc3ccccc3NC(=O)C=C)n2)c(OC)c1 [Compound 6]
[1]; [22]
  inhibition at 1 µM: 2%
[1]; read-out: Inhibition at 1 µM (%), ACVR1 (ALK2), 1 µM, LanthaScreen Binding
  inhibition at 1 µM: 3%
[2]; 1 h
  inhibition at 1 µM: 2%
[2]; read-out: Inhibition at 1 µM (%)
  inhibition at 1 µM: 2%
[3]
  pIC50: 7.00
[3]; [22]
  inhibition at 1 µM: 94%
[3]; 1 h, log[inhibitor] (M) -5.00, ZLYTE, ATP 100
  inhibition at 10 µM: 98%
[3]; 1 h, log[inhibitor] (M) -5.48, ZLYTE, ATP 100
  inhibition at 3.311 µM: 100%
[3]; 1 h, log[inhibitor] (M) -5.95, ZLYTE, ATP 100
  inhibition at 1.122 µM: 96%
[3]; 1 h, log[inhibitor] (M) -6.43, ZLYTE, ATP 100
  inhibition at 0.3715 µM: 65%
[3]; 1 h, log[inhibitor] (M) -6.91, ZLYTE, ATP 100
  inhibition at 0.123 µM: 53%
[3]; 1 h, log[inhibitor] (M) -7.39, ZLYTE, ATP 100
  inhibition at 0.04074 µM: 28%
[3]; 1 h, log[inhibitor] (M) -7.86, ZLYTE, ATP 100
  inhibition at 0.0138 µM: 15%
[3]; 1 h, log[inhibitor] (M) -8.82, ZLYTE, ATP 100
  inhibition at 0.001514 µM: 3%
[3]; BRAF, 1 µM, ZLYTE, ATP 100, listed as WEL028, 1 µM
  Inhibition at 1 µM (%): 97%
[3]; read-out: Inhibition at 1 µM (%), BRAF, 1 µM, ZLYTE, ATP 100
  inhibition at 1 µM: 90%
[4]
  Apparent fold selectivity: 25 fold
[5]; [22]
  inhibition at 1 µM: -6%
[5]; CAMK2A (CaMKII alpha), 1 µM, ZLYTE, ATP Km app, listed as WEL028, 1 µM
  Inhibition at 1 µM (%): -7% and -5%
[6]; 1 μM WEL028, 1 h preincubation
  Inhibition (%): 5%
[6]
  Inhibition at 1 µM (%): 2%
[6]; listed as WEL028, 1 µM
  Inhibition at 1 µM (%): 7%
[7]; 1 μM WEL028, 1 h preincubation
  Inhibition (%): 5%
[7]; CDK2/cyclin A1, 1 µM, LanthaScreen Binding, listed as WEL028, 1 µM
  Inhibition at 1 µM (%): 7%
[7]; read-out: Inhibition at 1 µM (%), CDK2/cyclin A1, 1 µM, LanthaScreen Binding
  inhibition at 1 µM: 4%
[8]; [22]
  inhibition at 1 µM: 3%
[8]; CDK5 (Inactive), 1 µM, LanthaScreen Binding, listed as WEL028, 1 µM
  Inhibition at 1 µM (%): 2%
[8]; read-out: Inhibition at 1 µM (%), CDK5 (Inactive), 1 µM, LanthaScreen Binding
  inhibition at 1 µM: 3%
[9]; [22]
  inhibition at 1 µM: 4%
[9]; CHEK2 (CHK2), 1 µM, ZLYTE, ATP Km app
  Inhibition at 1 µM (%): 14%
[10]; [22]
  inhibition at 1 µM: -2%
[10]; DDR1, 1 µM, LanthaScreen Binding, listed as WEL028, 1 µM
  Inhibition at 1 µM (%): -3%
[11]; [22]
  inhibition at 1 µM: 3%
[11]; DMPK, 1 µM, LanthaScreen Binding, listed as WEL028, 1 µM
  Inhibition at 1 µM (%): 1% and 5%
[12]; [22]
  inhibition at 1 µM: 9%
[12]; EEF2K, 1 µM, ZLYTE, ATP Km app, listed as WEL028, 1 µM
  Inhibition at 1 µM (%): 7%
[12]; read-out: Inhibition at 1 µM (%), EEF2K, 1 µM, ZLYTE, ATP Km app
  inhibition at 1 µM: 12%
[13]; [22]
  inhibition at 1 µM: 11%
[13]; FRAP1 (mTOR), 1 µM, ZLYTE, ATP Km app
  Inhibition at 1 µM (%): 19%
[14]; [22]
  inhibition at 1 µM: 13%
[14]; MKNK1 (MNK1), 1 µM, ZLYTE, ATP Km app
  Inhibition at 1 µM (%): 21%
[15]; [22]
  inhibition at 1 µM: 6%
[15]; NEK1, 1 µM, ZLYTE, ATP Km app
  Inhibition at 1 µM (%): 12%
[16]; [22]
  inhibition at 1 µM: 2%
[16]; read-out: Inhibition at 1 µM (%), NIM1K, 1 µM, ZLYTE, ATP Km app
  inhibition at 1 µM: 3%
[17]; [22]
  inhibition at 1 µM: 0%
[17]; PI4K2A (PI4K2 alpha), 1 µM, Adapta, ATP 10, listed as WEL028, 1 µM
  Inhibition at 1 µM (%): 2% and -2%
[18]; 1 µM, ZLYTE, ATP Km app
  Inhibition at 1 µM (%): 13%
[18]; [22]
  inhibition at 1 µM: 4%
[19]; 1 μM WEL028, 1 h preincubation
  Inhibition (%): 2%
[19]; [23]
  Inhibition at 1 µM (%): 0% and 5%
[20]
  pIC50: 6.00
[20]; [23]
  Inhibition at 1 µM (%): 61%
[20]; [22]
  inhibition at 1 µM: 60%
[20]; 1 h, log[inhibitor] (M) -5.00, LanthaScreen Binding
  inhibition at 10 µM: 33%
[20]; 1 h, log[inhibitor] (M) -5.48, LanthaScreen Binding
  inhibition at 3.311 µM: 58%
[20]; 1 h, log[inhibitor] (M) -5.95, LanthaScreen Binding
  inhibition at 1.122 µM: 69%
[20]; 1 h, log[inhibitor] (M) -6.43, LanthaScreen Binding
  inhibition at 0.3715 µM: 43%
[20]; 1 h, log[inhibitor] (M) -6.91, LanthaScreen Binding
  inhibition at 0.123 µM: 23%
[20]; 1 h, log[inhibitor] (M) -7.39, LanthaScreen Binding
  inhibition at 0.04074 µM: 19%
[20]; 1 h, log[inhibitor] (M) -7.86, LanthaScreen Binding
  inhibition at 0.0138 µM: 6%
[20]; 1 h, log[inhibitor] (M) -[…], LanthaScreen Binding
  inhibition at 0.004571 µM: 7%
[20]; IC50 on that kinase divided by IC50 on FES^S700C
  Apparent fold selectivity: 254 fold
[20]; read-out: Inhibition at 1 µM (%), 1 µM, LanthaScreen Binding
  inhibition at 1 µM: 59%
[21]; [22]
  inhibition at 1 µM: 7%
[21]; read-out: Inhibition at 1 µM (%), 1 µM, ZLYTE, ATP Km app
  inhibition at 1 µM: 8%

— article PMC7316778 (Nature Communications, 2020)
